Reference: US5610174A, “Use of α1A -selective adrenoceptor agonists for the treatment of urinary incontinence” (priority 1995, dated 1997)

Target: T1, dog BN, male (α1-adrenoceptor) (Canis lupus, UniProt A0A8I3NK63)
T1 sequence (A0A8I3NK63 1-466): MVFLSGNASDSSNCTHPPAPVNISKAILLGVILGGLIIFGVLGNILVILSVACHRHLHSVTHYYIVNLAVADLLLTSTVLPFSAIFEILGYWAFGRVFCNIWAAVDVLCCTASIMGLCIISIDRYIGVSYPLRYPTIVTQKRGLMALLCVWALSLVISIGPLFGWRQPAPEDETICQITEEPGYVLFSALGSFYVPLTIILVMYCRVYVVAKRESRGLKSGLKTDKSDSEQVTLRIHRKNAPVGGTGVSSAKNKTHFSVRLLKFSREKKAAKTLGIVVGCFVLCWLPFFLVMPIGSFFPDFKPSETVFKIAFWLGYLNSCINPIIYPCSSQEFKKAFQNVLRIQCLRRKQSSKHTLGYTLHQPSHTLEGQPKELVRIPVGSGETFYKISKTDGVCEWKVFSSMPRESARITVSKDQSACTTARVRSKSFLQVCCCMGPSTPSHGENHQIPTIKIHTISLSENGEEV
Assay: Contractile study in isolated male dog bladder neck
Details: versus phenylephrine-induced contraction
Source text: In addition, similar studies were done using bladder neck tissue from female dogs. In order to identify the specific receptor subtype in each tissue, the pharmacological profile was compared to the profiles for these same drugs at the cloned human α1A, α1B, or α1C subtypes.
Tissue samples from the proximal urethra of male humans and male and female rabbits, as well as tissue samples from both the proximal urethra and bladder neck of male and female dogs were cut into transverse strips (3×10 mm) and suspended under 0.5 g tension in Krebs' physiological buffer at 37° C. To determine agonist potency (pEC50 )and antagonist affinity constants (pKB), concentration-effect curves to the non-selective agonist phenylepherine were constructed in the absence and in the presence of increasing concentrations of the antagonist. Up to four sequential curves were constructed in each tissue. Antagonists were allowed to equilibrate for 1h before each concentration-effect curve, and the drugs were completely washed out in between successive curves. In each experiment, one tissue served as a "time control", in which no antagonist was added so that changes in tissue sensitivity could be assessed as a function of time. […] In instances in which a single concentration of antagonist was used, pKB values were determined by the equation: […], where CR is defined as the ratio of the agonist EC50 in the presence of the antagonist to that in the absence of the antagonist.

Row | Structure (SMILES) | pKB Dog BN Male
1 | COc1ccccc1N1CCN(CCCNc2c(C)c(=O)n(C)c(=O)n2C)CC1 [Compound 5-MU] | 8.7
2 | COc1cc2c(cc1OC)CN(c1cc(N)c3cc(OC)c(OC)cc3n1)CC2 [Abanoquil, 2-(6,7-Dimethoxy-3,4-dihydro-1H-isoquinolin-2-yl)-6,7-dimethoxyquinolin-4-ylamine hemifumarate hydrate] | 8.6
